Source: PMC3121759 (PLoS ONE, 2011)

Experiments:
GlyT-1 [1] = biological target: T1, GlyT-1 (Rattus norvegicus, UniProt P28572); test: Drug inhibition of [3H]CHIBA-3007 binding to rat brain membranes; settings: [3H]CHIBA-3007 (1 nM), 120 min room temperature, mean ± S.E.M., n=3
T1 construct: the tissues of whole brains or each specific brain region were homogenized; from tissue; host or cells: rat brain (whole brain or dissected regions; male Crl:CD (SD) rats)
T1 sequence (P28572 1-638): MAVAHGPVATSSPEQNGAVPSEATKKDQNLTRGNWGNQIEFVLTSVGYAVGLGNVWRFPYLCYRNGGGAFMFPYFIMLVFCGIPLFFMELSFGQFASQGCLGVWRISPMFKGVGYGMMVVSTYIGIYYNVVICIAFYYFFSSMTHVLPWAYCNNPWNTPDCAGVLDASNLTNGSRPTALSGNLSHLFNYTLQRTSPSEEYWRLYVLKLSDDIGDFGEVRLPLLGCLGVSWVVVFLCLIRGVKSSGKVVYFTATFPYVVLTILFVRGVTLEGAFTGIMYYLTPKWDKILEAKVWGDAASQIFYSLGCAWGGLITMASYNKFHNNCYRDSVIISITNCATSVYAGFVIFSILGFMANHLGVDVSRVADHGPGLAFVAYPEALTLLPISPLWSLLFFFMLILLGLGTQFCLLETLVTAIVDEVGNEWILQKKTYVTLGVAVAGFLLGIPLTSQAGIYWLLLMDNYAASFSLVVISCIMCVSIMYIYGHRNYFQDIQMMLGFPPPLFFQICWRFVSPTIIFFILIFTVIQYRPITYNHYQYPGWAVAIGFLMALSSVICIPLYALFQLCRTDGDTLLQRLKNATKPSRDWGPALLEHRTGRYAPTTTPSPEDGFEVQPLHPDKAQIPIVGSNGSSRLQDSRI
Experimental: The supernatant was discarded and the pellet was re-suspended, homogenized and centrifuged as above. The membrane pellet was washed and re-suspended in ice-cold HEPES buffer and was then centrifuged three times. The final pellet was re-suspended in 15 volumes of the buffer (120 mM NaCl, 2 mM KCl, 1 mM CaCl2, 1 mM MgCl2 10 mM HEPES, pH 7.5 at room temperature).
The binding reaction was terminated by rapid vacuum filtration onto Whatman GF/B glass filters pretreated with 0.5% polyethyleneimine (Sigma-Aldrich Co.) using a 24-channel cell harvester (Brandell, Gaithersburg, MD). The filters were washed with 5 mL of ice-cold assay buffer 3 times, and placed in vials with 4 mL scintillation cocktail. The radioactivity trapped by the filters was determined using a liquid scintillation counter (Beckman LS-6500; Beckman Coulter K.K., Tokyo, Japan).
(§1) The data are shown as the mean ± standard error of the mean (S.E.M.). The dissociation constant (Kd) and maximal binding (Bmax) values from saturation binding and the IC50 values from binding displacement by each drug were determined using the program GraphPad Prism (GraphPad Software, San Diego, CA). […] Correlation was analyzed by Pearson's Correlation Coefficient (PASW Statistics 19, Tokyo, Japan). Significance was set at p<0.05.

GlyT-1 [2] = biological target: T1, GlyT-1; test: Inhibition of [14C]glycine uptake in rat brain membranes; type: biochemical
Experimental: The homogenate was centrifuged at 1,000 g for 10 min to remove nuclei and debris, and then the supernatant was centrifuged again at 20,000 g for 20 min (synaptosomal P2 fraction). The pellet was washed and re-suspended in ice-cold 0.32 M sucrose, buffered with 10 mM HEPES (pH 7.4) and centrifuged again at 20,000 g for 20 min (washed P2 fraction). The pellet was re-suspended in 10 volumes of assay buffer with the following composition: 10 mM HEPES buffer (pH 7.4) containing 140 mM NaCl, 5.5 mM KCl, 1.8 mM CaCl2, 0.8 mM MgSO4, 5 mM glucose and 5 mM L-alanine (HB). The protein concentrations were measured by using a DC protein assay kit (Bio-Rad Laboratories Inc., Tokyo, Japan).
Non-specific uptake was estimated in the presence of 30 µM SSR504734. […] The filters were washed by buffer, and the radioactivity trapped by the filters was determined using a liquid scintillation counter as described above.
as §1

[3] = 28 standard target binding profile; settings: 1 µM
Experimental: (§2) Table S1. Inhibition effect of CHIBA-3007 (1 µM) on radioligand binding to various receptors
(§3) Test substance concentration: 1 µM, Positive substance concentration : 10 µM
(§4) Data are expressed as the mean values of duplicate samples.
(§5) The % inhibition was calculated from “100 – binding ratio”.
(§6) Binding ratio: [(B - N) / (B0 - N)] × 100 (%) B: Bound radioactivity in the presence of test substance and positive substance (individual value), B0: Total bound radioactivity in the absence of test substance and positive substance (mean value), N: Non-specific bound radioactivity (mean value)

Adenosine A1 = test: Radioligand binding, [3H]DPCPX; settings: Adenosine A1, [3H]DPCPX, duplicate
Experimental: as §2, §3, §4, §5, §6

Adenosine A2 = test: Radioligand binding, [3H]CGS21680; settings: Adenosine A2, [3H]CGS21680, 1 µM, duplicate
Experimental: as §2, §3, §4, §5, §6

[4] = tested on: α1-Adrenergic (Non-selective); test: Radioligand binding, [3H]Prazosin; settings: duplicate
Experimental: as §2, §3, §4, §5, §6

[5] = tested on: α2-Adrenergic (Non-selective); test: Radioligand binding, [3H]RX821002; settings: [3H]RX821002, 1 µM, duplicate
Experimental: as §2, §3, §4, §5, §6

[6] = tested on: β-Adrenergic (Non-selective); test: Radioligand binding, [3H]DHA; settings: duplicate
Experimental: as §2, §3, §4, §5, §6

Dopamine D1 = test: Radioligand binding, [3H]SCH23390; settings: Dopamine D1, [3H]SCH23390, 1 µM, duplicate
Experimental: as §2, §3, §4, §5, §6

Dopamine D2 = test: Radioligand binding, [3H]Spiperone; settings: Dopamine D2, [3H]Spiperone, duplicate
Experimental: as §2, §3, §4, §5, §6

GABA -A (Agonist site) = test: Radioligand binding, [3H]Muscimol; settings: duplicate
Experimental: as §2, §3, §4, §5, §6

GABA- A (BZ central) = test: Radioligand binding, [3H]Flunitrazepam; settings: duplicate
Experimental: as §2, §3, §4, §5, §6

GABA -B = test: Radioligand binding, [3H]GABA; settings: duplicate
Experimental: as §2, §3, §4, §5, §6

[7] = tested on: Glutamate (Non-selective); test: Radioligand binding, [3H]Glutamic acid; settings: duplicate
Experimental: as §2, §3, §4, §5, §6

Glutamate (AMPA) = test: Radioligand binding, [3H]AMPA; settings: duplicate
Experimental: as §2, §3, §4, §5, §6

Glutamate (Kainate) = test: Radioligand binding, [3H]Kainic acid; settings: duplicate
Experimental: as §2, §3, §4, §5, §6

[8] = tested on: Glutamate (NMDA agonist site); test: Radioligand binding, [3H]CGP-39653; settings: [3H]CGP-39653, 1 µM, duplicate
Experimental: as §2, §3, §4, §5, §6

[9] = tested on: Glutamate (NMDA glycine site); test: Radioligand binding, [3H]MDL105519; settings: [3H]MDL105519, 1 µM, duplicate
Experimental: as §2, §3, §4, §5, §6

[10] = tested on: Glutamate (NMDA phencyclidine site); test: Radioligand binding, [3H]MK-801; settings: [3H]MK-801, 1 µM, duplicate
Experimental: as §2, §3, §4, §5, §6

[11] = tested on: Glycine (Strychnine sensitive); test: Radioligand binding, [3H]Strychnine; settings: duplicate
Experimental: as §2, §3, §4, §5, §6

Histamine H1 (Central) = test: Radioligand binding, [3H]Pyrilamine; settings: duplicate
Experimental: as §2, §3, §4, §5, §6

Histamine H2 = test: Radioligand binding, [3H]Cimetidine; settings: Histamine H2, [3H]Cimetidine, duplicate
Experimental: as §2, §3, §4, §5, §6

Histamine H3 = test: Radioligand binding, [3H]N-methyl histamine; settings: Histamine H3, [3H]N-methyl histamine, duplicate
Experimental: as §2, §3, §4, §5, §6

Muscarinic M1 = test: Radioligand binding, [3H]Pirenzepine; settings: Muscarinic M1, [3H]Pirenzepine, duplicate
Experimental: as §2, §3, §4, §5, §6

Muscarinic M2 = test: Radioligand binding, [3H]AF-DX-384; settings: Muscarinic M2, [3H]AF-DX-384, 1 µM, duplicate
Experimental: as §2, §3, §4, §5, §6

Nicotinic Ni = test: Radioligand binding, [3H]Nicotine; settings: duplicate
Experimental: as §2, §3, §4, §5, §6

Opiate (Non-selective) = test: Radioligand binding, [3H]Naloxone; settings: duplicate
Experimental: as §2, §3, §4, §5, §6

Serotonin 5-HT1A = test: Radioligand binding, [3H]8-OH DPAT; settings: duplicate
Experimental: as §2, §3, §4, §5, §6

Serotonin 5-HT2A = test: Radioligand binding, [3H]Ketanserin; settings: duplicate
Experimental: as §2, §3, §4, §5, §6

Serotonin 5-HT3 (Human) = test: Radioligand binding, [3H]GR65630; settings: [3H]GR65630, 1 µM, duplicate
Experimental: as §2, §3, §4, §5, §6

Sigma (Non-selective) = test: Radioligand binding, [3H]DTG; settings: duplicate
Experimental: as §2, §3, §4, §5, §6

CN1CCCC[C@@H]1[C@@H](NC(=O)c1nccc(C(F)(F)F)c1Cl)c1ccsc1 [CHIBA-3007, 3-Chloro-N-((S)-((R)-1-methylpiperidin-2-yl)(thiophen-3-yl)methyl)-4-(trifluoromethyl)picolinamide]
Ki (GlyT-1 [1]): 2.8 ± 0.17 nM | IC50 (GlyT-1 [2]): 21.4 ± 8.4 nM | Inhibition in 28 standard target binding profile [3]: lower than 50% | % Inhibition (1 µM) (Adenosine A1): 2.12% | % Inhibition (1 µM) (Adenosine A2): 5.86% | % Inhibition (1 µM) [4]: 1.13% | % Inhibition (1 µM) [5]: 20.98% | % Inhibition (1 µM) [6]: 8.39% | % Inhibition (1 µM) (Dopamine D1): 2.32% | % Inhibition (1 µM) (Dopamine D2): 1.00% | % Inhibition (1 µM) (GABA -A (Agonist site)): 0.20% | % Inhibition (1 µM) (GABA- A (BZ central)): 2.78% | % Inhibition (1 µM) (GABA -B): 8.19% | % Inhibition (1 µM) [7]: 1.91% | % Inhibition (1 µM) (Glutamate (AMPA)): 3.27% | % Inhibition (1 µM) (Glutamate (Kainate)): 1.50% | % Inhibition (1 µM) [8]: 8.17% | % Inhibition (1 µM) [9]: 4.02% | % Inhibition (1 µM) [10]: 3.80% | % Inhibition (1 µM) [11]: 0.00% | % Inhibition (1 µM) (Histamine H1 (Central)): 1.83% | % Inhibition (1 µM) (Histamine H2): 3.80% | % Inhibition (1 µM) (Histamine H3): 0.00% | % Inhibition (1 µM) (Muscarinic M1): 8.35% | % Inhibition (1 µM) (Muscarinic M2): 16.31% | % Inhibition (1 µM) (Nicotinic Ni): 2.10% | % Inhibition (1 µM) (Opiate (Non-selective)): 43.44% | % Inhibition (1 µM) (Serotonin 5-HT1A): 35.22% | % Inhibition (1 µM) (Serotonin 5-HT2A): 30.56% | % Inhibition (1 µM) (Serotonin 5-HT3 (Human)): 7.36% | % Inhibition (1 µM) (Sigma (Non-selective)): 24.20%
